Paper PMC5743070 (The Journal of Biological Chemistry, 2017)

Columns and labels:
TTD–PHD (UHRF1_126–366) = biological target: T1, TTD–PHD (UHRF1_126–366) (Homo sapiens, UniProt Q96T88); experiment: ITC of H3 peptide binding to TTD–PHD
T1 construct: His tag (TEV-cleavable) (N); made in house
T1 sequence (Q96T88 126-366): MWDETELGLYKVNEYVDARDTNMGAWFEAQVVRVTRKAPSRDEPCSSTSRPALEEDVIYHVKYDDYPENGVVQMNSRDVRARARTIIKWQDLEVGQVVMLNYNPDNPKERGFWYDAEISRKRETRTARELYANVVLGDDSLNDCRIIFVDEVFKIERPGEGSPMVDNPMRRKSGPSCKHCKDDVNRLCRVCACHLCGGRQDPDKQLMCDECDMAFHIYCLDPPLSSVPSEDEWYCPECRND
Method: A preliminary peptide injection of 0.06 μl was followed by subsequent 2-μl injections into the sample cell containing 167 μl of 50 μM TTD–PHD. Where indicated, 1.5 mM BPC or 1.5 mM PBR peptide was included in the injection syringe and sample cell. The reported KD and n values are based on the average from two measurements. For ITC measurements of TTD (UHRF1_121–286) interaction with BPC, the protein was buffered in 20 mM Tris (pH 7.4), 50 mM NaCl, and 5% DMSO. BPC was brought to a concentration of 2.5 mM and injected into the sample cell containing 40 μM protein. The data were acquired on a Nano ITC from TA Instruments at 25 °C and fitted with an independent-binding site model using NanoAnalyze software (v3.7.0).
ITC curves showing TTD-PHD binding to methylated (red) and unmethylated (black) H3 peptide.
(1 picture or pasted object on this page, not shown here)

TTD (UHRF1_121–286) = biological target: T2, TTD (UHRF1_121–286) (Homo sapiens, UniProt Q96T88); experiment: HSQC competition of BPC and linker peptide on TTD; format: binding; settings: BPC 2.4 mM, linker peptide 3.0 mM, 5% DMSO; I211, I212 and E281 resonances in HSQC
T2 construct: UHRF1_121–286 corresponding to the TTD; made in house
T2 sequence (Q96T88 121-286): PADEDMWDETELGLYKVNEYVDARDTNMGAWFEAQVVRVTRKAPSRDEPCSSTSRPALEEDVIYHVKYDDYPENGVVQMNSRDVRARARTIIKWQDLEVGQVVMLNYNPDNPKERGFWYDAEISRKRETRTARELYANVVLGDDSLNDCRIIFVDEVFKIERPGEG
Method: (§1) NMR samples were buffered in 20 mM sodium phosphate (pH 7.5), 150 mM NaCl, 5 mM DTT, 5 mM β-mercaptoethanol, 2 mM TCEP, and 10 μM ZnSO4. The protein concentration was between 200 and 300 μM for all samples. The data were collected at 25 °C on Bruker spectrometers equipped with cryoprobes and operating at 500, 600, or 800 MHz. The assignment of backbone TTD–PHD resonances was accomplished using the ABACUS method ([29]) for which standard backbone and ^15N-edited NOESY spectra were collected using ^15N/^13C/^2H- or ^15N/^13C-labeled protein. All 3D experiments were acquired using non-uniform sampling and processed using the software MDDGUI ([30]) or qMDD ([31]). ^15N-Labeled TTD–PHD was used to acquire ^15N T1 and T2 relaxation and ^1H-^15N heteronuclear NOE measurements ([32]) collected using standard Bruker pulse schemes in an interleaved manner. For T1 measurements, the variable delay was set to 0.1, 0.4, 0.8, 1.5, 2.0, 2.5, 3.5, and 5 s. For T2 measurements, the variable delay was set to 16, 32, 48, 64, 80, 96, 128, and 144 ms. The D1 was 3 s for all experiments. Reported values were the average from two measurements. All spectra were processed using NMRPipe ([33]) and analyzed with SPARKY ([34]). […]
(§2) trated by the perturbation of I211, I212 and E281 resonances in HSQC spectra of the TTD in a competition assay. […]

solubility (statement) = format: physicochemical
PHD = experiment: NMR titration of PHD with BPC; format: binding
Method: as §1, §2

increase of KD for H3K9me3 (effect of added ligand) (TTD–PHD (UHRF1_126–366); 1.5 mM BPC or PBR peptide in syringe and cell, vs apo TTD–PHD): ~5 fold
competition for the TTD groove (TTD (UHRF1_121–286)): compete directly for the TTD groove
solubility (solubility (statement)): highly soluble
Structure (SMILES): N=C(N)N1CCC(Cc2ccccc2)CC1 [BPC, 4-benzylpiperidine-1-carboximidamide]
effect on TTD–PHD binding affinity for the histone peptide (TTD–PHD (UHRF1_126–366); 1.5 mM BPC (4% DMSO) or 1.5 mM PBR peptide, H3K9me3(1–15)): reduces the TTD–PHD binding affinity for the histone peptide
effect on PHD resonances (PHD; 3 mM BPC, 5% DMSO (12:1)): unaffected
interaction with PHD (PHD; separate NMR titration with PHD): no interaction
